{
  "source": "patent US20250268979A1",
  "about": "“COMBINATION OF MACROCYCLIC CFTR MODULATORS WITH CFTR CORRECTORS AND / OR CFTR POTENTIATORS” (Idorsia Pharmaceuticals Ltd, priority 2022, published 2025)",
  "origin": "cited, not measured here",
  "key": {"[1]": {"test_system": "CF patients carrying at least one F508del-CFTR allele"}, "[2]": {"test_system": "CF patients with ivacaftor-responsive CFTR mutations", "conditions": "for mean ctrough plasma concentration: 4 weeks of treatment; for absolute change from baseline in sweat chloride compared to ivacaftor 150 mg b.i.d. / ppFEV1 treatment difference versus ivacaftor 150 mg b.i.d.: 12 weeks"}, "[3]": {"test_system": "F508del-CFTR homozygous patients", "conditions": "Keating, 2018"}, "[4]": {"test_system": "CF patients homozygous for the F508del-CFTR mutation"}, "F508del-CFTR [5]": {"target": "T1, F508del-CFTR (Homo sapiens, UniProt P13569, DEL508-508)", "T1 construct": "from tissue; host or cells: reconstituted bronchial epithelium from CF patients", "T1 sequence (P13569 with tags, fused parts or gaps DEL508-508)": "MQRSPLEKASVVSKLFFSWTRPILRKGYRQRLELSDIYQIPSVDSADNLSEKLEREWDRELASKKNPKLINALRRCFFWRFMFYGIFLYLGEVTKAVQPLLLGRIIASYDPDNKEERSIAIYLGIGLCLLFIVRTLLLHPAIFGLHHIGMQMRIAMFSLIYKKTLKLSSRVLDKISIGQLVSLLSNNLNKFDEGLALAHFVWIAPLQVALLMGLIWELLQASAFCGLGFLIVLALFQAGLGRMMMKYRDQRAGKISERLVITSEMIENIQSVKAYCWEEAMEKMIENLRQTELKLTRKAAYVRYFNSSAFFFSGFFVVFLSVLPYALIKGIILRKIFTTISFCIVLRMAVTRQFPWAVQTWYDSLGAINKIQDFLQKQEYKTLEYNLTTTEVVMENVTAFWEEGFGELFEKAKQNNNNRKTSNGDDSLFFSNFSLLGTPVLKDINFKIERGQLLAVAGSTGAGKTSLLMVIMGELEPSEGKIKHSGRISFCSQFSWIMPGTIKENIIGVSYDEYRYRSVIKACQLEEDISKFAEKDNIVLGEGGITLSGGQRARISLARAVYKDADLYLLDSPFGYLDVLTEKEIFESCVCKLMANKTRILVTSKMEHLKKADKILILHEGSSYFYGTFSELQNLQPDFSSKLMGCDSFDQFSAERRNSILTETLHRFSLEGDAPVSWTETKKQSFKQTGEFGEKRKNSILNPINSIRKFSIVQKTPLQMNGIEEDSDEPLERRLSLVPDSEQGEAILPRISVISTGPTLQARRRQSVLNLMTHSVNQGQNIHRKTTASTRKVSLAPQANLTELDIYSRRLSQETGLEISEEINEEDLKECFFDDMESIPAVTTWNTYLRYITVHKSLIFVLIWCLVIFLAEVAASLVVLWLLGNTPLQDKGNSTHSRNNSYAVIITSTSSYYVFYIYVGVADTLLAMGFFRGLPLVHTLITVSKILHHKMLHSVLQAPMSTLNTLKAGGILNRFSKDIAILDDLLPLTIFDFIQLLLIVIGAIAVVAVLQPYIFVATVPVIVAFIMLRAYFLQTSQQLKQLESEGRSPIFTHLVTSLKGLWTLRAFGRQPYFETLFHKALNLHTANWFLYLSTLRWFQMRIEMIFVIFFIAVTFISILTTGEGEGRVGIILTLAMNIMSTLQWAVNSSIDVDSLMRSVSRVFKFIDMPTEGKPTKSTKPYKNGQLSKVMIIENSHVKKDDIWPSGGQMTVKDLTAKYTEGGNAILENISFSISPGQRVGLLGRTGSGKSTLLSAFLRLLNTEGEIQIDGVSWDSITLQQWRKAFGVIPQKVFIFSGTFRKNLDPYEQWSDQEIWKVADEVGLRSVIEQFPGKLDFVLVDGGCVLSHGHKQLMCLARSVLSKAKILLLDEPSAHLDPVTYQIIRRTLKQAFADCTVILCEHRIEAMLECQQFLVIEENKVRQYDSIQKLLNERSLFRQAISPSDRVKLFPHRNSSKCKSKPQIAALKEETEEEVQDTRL", "conditions": "homozygous F508del-CFTR doners; in the presence of potentiator GLPG1837"}, "[6]": {"test_system": "CF patients carrying class III, IV CFTR mutations on one allele"}, "[7]": {"test_system": "patients homozygous for the F508del-CFTR mutation", "conditions": "450 mg b.i.d."}, "healthy volunteers": {"test_system": "healthy volunteers", "conditions": "up to 1000 mg following SAD and up to 750 mg b.i.d. following MAD"}, "[8]": {"test_system": "patients with moderate to severe COPD and symptoms of chronic bronchitis", "conditions": "300 mg b.i.d., 4 weeks"}, "F508del-CFTR [9]": {"target": "T1, F508del-CFTR"}, "[10]": {"conditions": "14 days, PTI-801 600 mg triple combination"}, "[11]": {"conditions": "patients predisposed to rapid pulmonary decline, combo regimen with 600 mg PTI-801"}},
  "note": "Where two headings read alike, the source gives them in different places.",
  "data": [
    {"compound": "Cc1c(-c2cc(C(=O)O)c3c(O[C@H](C)C4CCOCC4)ccc(C)c3n2)oc2ccccc12", "note": "[PTI-801]", "values": [
      {"measurement": "decrease in sweat chloride compared with before treatment", "setting": "[1]; [10]", "value": 19, "unit": "mM"},
      {"measurement": "decrease in sweat chloride compared with placebo", "setting": "[1]; [10]", "value": 24, "unit": "mM"},
      {"measurement": "increase in mean absolute ppFEV1 compared with before the treatment", "setting": "[1]; 14 days, PTI-801 600 mg with PTI-808 150 mg and PTI-428 30 mg", "value": 5, "unit": "%"},
      {"measurement": "improvement in ppFEV1 compared with before treatment", "setting": "[1]; [11]", "value": 6, "unit": "%"},
      {"measurement": "improvement in ppFEV1 compared with placebo", "setting": "[1]; [11]", "value": 8, "unit": "%"}
    ]},
    {"compound": "[2H]C([2H])([2H])C(c1cc(C(C)(C)C)c(NC(=O)c2c[nH]c3ccccc3c2=O)cc1O)(C([2H])([2H])[2H])C([2H])([2H])[2H]", "note": "[deutivacaftor, N-[2-tert-butyl-4-[1,1,1,3,3,3-hexadeuterio-2-(trideuteriomethyl)propan-2-yl]-5-hydroxyphenyl]-4-oxo-1H-quinoline-3-carboxamide]", "values": [
      {"measurement": "mean ctrough plasma concentration", "setting": "[2]; 150 mg once daily", "value": 458, "unit": "ng/mL"},
      {"measurement": "absolute change from baseline in sweat chloride compared to ivacaftor 150 mg b.i.d.", "setting": "[2]; 150 mg once daily", "value": "+2.4 mM"},
      {"measurement": "ppFEV1 treatment difference versus ivacaftor 150 mg b.i.d.", "setting": "[2]; 150 mg once daily", "value": "+3.9%"},
      {"measurement": "mean ctrough plasma concentration", "setting": "[2]; 250 mg once daily", "value": 1100, "unit": "ng/mL"},
      {"measurement": "absolute change from baseline in sweat chloride compared to ivacaftor 150 mg b.i.d.", "setting": "[2]; 250 mg once daily", "value": -7.4, "unit": "mM"},
      {"measurement": "ppFEV1 treatment difference versus ivacaftor 150 mg b.i.d.", "setting": "[2]; 250 mg once daily", "value": "+3.5%"}
    ]},
    {"compound": "Cc1nn(C)cc1S(=O)(=O)NC(=O)c1ccc(-n2ccc(OCC(C)(C)C(F)(F)F)n2)nc1N1C[C@@H](C)CC1(C)C", "note": "[elexacaftor, N-(1,3-dimethyl-1H-pyrazole-4-sulfonyl)-6-[3-(3,3,3-trifluoro-2,2-dimethylpropoxy)-1H-pyrazol-1-yl]-2-[(4S)-2,2,4-trimethylpyrrolidin-1-yl]pyridine-3-carboxamide]", "values": [
      {"measurement": "ppFEV1 increase on adding to basal treatment of tezacaftor+ivacaftor (SYMDEKO)", "setting": "[3]", "value": 10, "unit": "%"}
    ]},
    {"compound": "O=C(O)c1ccc([C@H]2C[C@@H](NC(=O)C3(c4ccc5c(c4)OC(F)(F)O5)CC3)c3ccc(OC(F)F)cc3O2)cc1", "note": "[galicaftor, 4-[(2R,4R)-4-({[1-(2,2-Difluoro-1,3-benzodioxol-5-yl)cyclopropyl]carbonyl}amino)-7-(difluoromethoxy)-3,4-dihydro-2H-chromen-2-yl]benzoic Acid]", "values": [
      {"measurement": "change in sweat chloride versus placebo", "setting": "[4]; 200 mg dose group, day 29", "value": -15.8, "unit": "mM"},
      {"measurement": "tolerability and safety", "setting": "[4]; 4 weeks, once-daily 50, 100, 200 and 400 mg", "value": "well tolerated and safe"},
      {"measurement": "change from baseline in CFQ-R score versus placebo", "setting": "[4]; day 29", "value": "No significant changes versus placebo"},
      {"measurement": "change from baseline in ppFEV1 versus placebo", "setting": "[4]; day 29", "value": "No significant changes versus placebo"},
      {"measurement": "EC50", "setting": "F508del-CFTR [5]", "value": 5, "unit": "nM"},
      {"measurement": "galicaftor exposure in the presence of two different doses of navocaftor", "setting": "healthy subjects; in vivo", "value": "similar"}
    ]},
    {"compound": "COc1nc(C(=O)NC[C@](C)(O)C(F)(F)F)c(N)cc1C(F)(F)F", "note": "[icenticaftor, 3-Amino-6-methoxy-N-[(2S)-3,3,3-trifluoro-2-hydroxy-2-methylpropyl]-5-(trifluoromethyl)pyridine-2-carboxamide]", "values": [
      {"measurement": "LCI2.5 compared to placebo", "setting": "[6]; 450 mg b.i.d., 14 days", "value": "−1.13"},
      {"measurement": "ppFEV1 increase versus placebo", "setting": "[6]; 450 mg b.i.d., 14 days", "value": 6.5, "unit": "%"},
      {"measurement": "sweat chloride concentration versus placebo", "setting": "[6]; 450 mg b.i.d., 14 days", "value": -8.4, "unit": "mM"},
      {"measurement": "tolerability in CF patients", "setting": "[6]; 150 and 450 mg b.i.d., across all patient sub-groups", "value": "well tolerated"},
      {"measurement": "sweat chloride and lung function", "setting": "[7]", "value": "no reduction in sweat chloride or improvement in lung function"},
      {"measurement": "tolerability", "setting": "healthy volunteers", "value": "well tolerated"},
      {"measurement": "LCI2.5 compared to placebo", "setting": "[8]", "value": "did not change"},
      {"measurement": "sweat chloride compared to placebo", "setting": "[8]; average baseline 23 mM", "value": -5.04, "unit": "mM"},
      {"measurement": "FEV1 compared to placebo", "setting": "[8]; average baseline 1.4-1.5 L", "value": "0.05 to 0.06", "unit": "L"},
      {"measurement": "plasma fibrinogen compared to placebo", "setting": "[8]; average baseline 3.2 g/L", "value": -0.39, "unit": "g/L"}
    ]},
    {"compound": "CC(C)(C)c1cc(C(C)(C)C)c(NC(=O)c2c[nH]c3ccccc3c2=O)cc1O", "note": "[ivacaftor, N-(2,4-di-tert-butyl-5-hydroxyphenyl)-1,4-dihydro-4-oxoquinoline-3-carboxamide]", "values": [
      {"measurement": "mean ctrough plasma concentration", "setting": "[2]; 150 mg b.i.d.", "value": 952, "unit": "ng/mL"},
      {"measurement": "further augmentation of function on addition to tezacaftor and elexacaftor", "setting": "F508del-CFTR [9]; Keating, 2018", "value": 2, "unit": "fold"},
      {"measurement": "augmentation of CFTR function on addition to lumacaftor-corrected F508del-CFTR", "setting": "F508del-CFTR [9]; van Goor, 2011", "value": "almost two-fold"}
    ]},
    {"compound": "Nc1cc(S(=O)(=O)c2ccc(OC(F)(F)F)cc2)cnc1-c1nnc(CO)o1", "note": "[navocaftor, (5-(3-Amino-5-((4-(trifluoromethoxy)phenyl)sulfonyl)pyridin-2-yl)-1,3,4-oxadiazol-2-yl) methanol]", "values": [
      {"measurement": "navocaftor exposure in the presence of galicaftor", "setting": "healthy subjects; in vivo", "value": "not apparently altered"},
      {"measurement": "tolerability", "setting": "healthy subjects; up to 1000 mg single dose and up to 500 mg b.i.d. for 14 days", "value": "generally well tolerated"}
    ]}
  ]
}
